What all share (assay type): cell-based
Data set [1] has as its target T1, Programmed cell death protein 4 (Homo sapiens) (UniProt Q53EL6).
T1 sequence (whole entry): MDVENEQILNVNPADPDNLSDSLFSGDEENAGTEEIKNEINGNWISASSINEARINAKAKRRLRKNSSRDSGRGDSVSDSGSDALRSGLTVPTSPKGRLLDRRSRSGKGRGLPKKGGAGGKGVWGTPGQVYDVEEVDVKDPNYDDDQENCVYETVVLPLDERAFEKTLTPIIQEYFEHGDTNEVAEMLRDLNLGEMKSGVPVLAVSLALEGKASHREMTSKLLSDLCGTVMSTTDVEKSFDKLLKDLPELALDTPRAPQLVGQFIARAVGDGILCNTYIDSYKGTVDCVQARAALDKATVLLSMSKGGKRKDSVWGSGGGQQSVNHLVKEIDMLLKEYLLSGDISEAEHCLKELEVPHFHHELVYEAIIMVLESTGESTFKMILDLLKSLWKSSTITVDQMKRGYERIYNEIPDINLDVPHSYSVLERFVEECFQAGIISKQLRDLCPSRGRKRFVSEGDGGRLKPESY
Nature of the data set: Stabilization of Pdcd4 expressed in human HEK293 cells assessed as inhibition of TPA-induced degradation by luciferase reporter assay.

Data set [2] concerns the target T1, Programmed cell death protein 4 (Homo sapiens). As to the kind of experiment: Stabilization of Pdcd4 expressed in TPA-stimulated human HEK293 cells at 2.5 uM by luciferase reporter assay. A general note: Reporter assays use an easily measured gene product as a stand-in for the process of interest.
The subject of data set [3] is HEK293. As to the kind of experiment: Cytotoxicity against human HEK293 cells.

Calls of active or inactive are those of the source. The rule behind the calls is not given here.

Regarding `COC(=O)/C(C)=C/C(C)CC(C)CC(C)(O)C(C)O` (stereo not given), in data set [1], the inhibition entry was “inactive”.
Compound `Nc1ncnc2c1ccn2[C@@H]1O[C@H](CO)[C@@H](O)[C@H]1O` [TUBERCIDIN] gave a max activation in data set [2] of 94.2%. Also, the Activity in data set [3] is > 2.5 µM.
For `COC(=O)/C(C)=C/C(C)CC(C)CC(C)(O)CC(C)O` (stereo not given), the inhibition entry in data set [1] was “inactive”.
Still for that read-out and setting: then `CCC(=O)/C(C)=C/C(C)CC(C)CC(C)(O)CC` (stereo not given), with “inactive”.

The values are drawn from ChEMBL document CHEMBL1909608, “Actinopolysporins A-C and tubercidin as a Pdcd4 stabilizer from the halophilic actinomycete Actinopolyspora erythraea YIM 90600” (J Nat Prod, 2011).
